In US9187415B2, “Sulfonamides as HIV protease inhibitors” (Merck Canada Inc., priority 2010, dated 2015):
Where two headings read alike, the source gives them in different places.

Key:
[1] = system: human immunodeficiency virus type 1; test: Acute Infection Assay (Spread); type: cell-based, HIV-1
Source text: Acute Infection Assay (“Spread”) data were generated in 10% FBS, and according to the methods disclosed by J. P. Vacca et al, “L-735,524: An orally bioavailable human immunodeficiency virus type 1 protease inhibitor,” Proc. Nati. Acad. Sci. USA, Vol. 91, pp. 4096-4100 (April 1994).

[2] = molecular target: T1, HIV-1 protease (wild type) (Human immunodeficiency virus type 1 group M subtype B, UniProt P04585); test: Protease Inhibition Assay (Pepcleave), inhibition of microbial expressed HIV protease; type: biochemical
T1 construct: made in house; host or cells: Escherichia coli
Experimental: Assay for Inhibition of Microbial Expressed HIV Protease
Inhibition studies of the reaction of the protease (which was expressed in Eschericia coli) with a peptide substrate [Val-Ser-Gln-Asn-(betanaphtyl)Ala-Pro-Ile-Val]. The inhibitor is first preincubated with the HIV-1 protease (wild type) enzyme in assay buffer (50 mM sodium acetate, pH 5.5, 100 mM NaCl, and 0.1% BSA) for 30 minutes at room temperature. Substrate is added to 400 micromolar in a total volume of 80 microliters containing 10 picomolar HIV-1 protease and the reaction is incubated for 1 hour at 30° C. The reaction is quenched with the addition of 120 microliters of 10% phosphoric acid. The product formation is determined after separation of product and substrate on a Zorbax Eclipse XDB-C18 column connected to an Agilent 1100 high performance liquid chromatography system with fluorescence detection (excitation 270 nanometer and emission 330 nanometer). Alternatively, the inhibitor is preincubated with enzyme and substrate as described above, but in a total volume of 20 microliters containing 20 picomolar HIV-1 protease and the reaction is incubated for 1 hour at 30° C. The reaction is quenched with the addition of 30 microliters of 1 micromolar indinavir (indinavir is also used as an internal standard), and the product formation is determined after separation of product and substrate on a Zorbax Eclipse XDB-C18 column connected to an API 4000 mass spectrometer (Applied Biosystems) with multiple reaction monitoring (transitions were 644.5/428.9 and 615.4/422.2 (M1/M3) for product and indinavir respectively). The extent of inhibition of the reaction is determined from the peak area of the products. HPLC of the products, independently synthesized, provided quantitation standards and confirmation of the product composition.
Protease Inhibition Assay (“Pepcleave”) data were collected based on the wild-type HIV-1 protease enzyme. The assay monitors the cleavage of a 8-mer peptide (VSQN[β-Nal]PIV) where the tyrosine at P1 position is replaced by β-Naphthyl-alanine. Upon cleavage of the peptide by HIV-1 protease, the product is separated from substrate by HPLC column and detected at Ex.=270 nm/Em=330 nm.

[3] = Human immunodeficiency virus 1, 10% FBS, mean of at least two independent experiments, read-out: Spread IC95
[4] = wild-type HIV-1 protease, mean of at least two independent experiments, read-out: Pepcleave Enzyme inhibition IC50

COC(=O)N[C@H](C(=O)Nc1ccccc1CC[C@@H](CO)N(CCC(C)C)S(=O)(=O)c1ccc(N)cc1)C(c1ccccc1)c1ccccc1 [Example 1, N-{2-[(3S)-3-{[(4-aminophenyl)sulfonyl](3-methylbutyl)amino}-4-hydroxybutyl]phenyl}-Nα-(methoxycarbonyl)-β-phenyl-L-phenylalaninamide] gave an IC95 [1, 3] of 74 nM and an IC50 [2, 4] of 0.02 nM.

With COC(=O)N[C@H](C(=O)Nc1ccccc1CC[C@@H](CO)N(C(C)C)S(=O)(=O)c1ccc(N)cc1)C(c1ccccc1)c1ccccc1 [Example 2, N-{2-[(3S)-3-{[(4-aminophenyl)sulfonyl](propan-2-yl)amino}-4-hydroxybutyl]phenyl}-Nα-(methoxycarbonyl)-β-phenyl-L-phenylalaninamide] the IC95 [1, 3] was 919 nM and the IC50 [2] was 1.2 nM.

Work on COC(=O)N[C@H](C(=O)Nc1ccccc1CC[C@@H](CO)N(CC1CC1)S(=O)(=O)c1ccc(N)cc1)C(c1ccccc1)c1ccccc1 [Example 3, N-{2-[(3S)-3-{[(4-aminophenyl)sulfonyl](cyclopropylmethyl)amino}-4-hydroxybutyl]phenyl}-Nα-(methoxycarbonyl)-β-phenyl-L-phenylalaninamide] yielded an IC95 ([1]; Human immunodeficiency virus 1, read-out: Spread IC95) of 307 nM and an IC50 [2, 4] of 0.2 nM.

With COC(=O)N[C@H](C(=O)Nc1ccccc1CC[C@@H](CO)N(Cc1cnoc1)S(=O)(=O)c1ccc(N)cc1)C(c1ccccc1)c1ccccc1 [Example 4] the IC95 [1, 3] was 838 nM and the IC50 [2] was 0.2 nM.

COC(=O)N[C@H](C(=O)Nc1ccccc1CC[C@@H](CO)N(Cc1cncnc1C)S(=O)(=O)c1ccc(N)cc1)C(c1ccccc1)c1ccccc1 [Example 5, N-{2-[(3S)-3-{[(4-aminophenyl)sulfonyl][(4-methylpyrimidin-5-yl)methyl]amino}-4-hydroxybutyl]phenyl}-Nα-(methoxycarbonyl)-β-phenyl-L-phenylalaninamide] showed an IC95 [1, 3] of 1190 nM and an IC50 [2] of 0.7 nM.

COC(=O)N[C@H](C(=O)Nc1ccccc1CC[C@@H](CO)N(Cc1cn[nH]c1)S(=O)(=O)c1ccc(N)cc1)C(c1ccccc1)c1ccccc1 [Example 6, N-{2-[(3S)-3-{[(4-aminophenyl)sulfonyl](1H-pyrazol-4-ylmethyl)amino}-4-hydroxybutyl]phenyl}-Nα-(methoxycarbonyl)-β-phenyl-L-phenylalaninamide] gave an IC95 [1, 3] of 2340 nM and an IC50 [2] of 0.07 nM.

COC(=O)N[C@H](C(=O)Nc1ccccc1CC[C@@H](CO)N(CC(C)C)S(=O)(=O)c1ccc2ncsc2c1)C(c1ccccc1)c1ccccc1 [Example 7, N-(2-{(3S)-3-[(1,3-benzothiazol-6-ylsulfonyl)(2-methylpropyl)amino]-4-hydroxybutyl}phenyl)-Nα-(methoxycarbonyl)-β-phenyl-L-phenylalaninamide] gave an IC50 [2, 4] of 1.6 nM.

[2H]C([2H])([2H])C([2H])(C([2H])([2H])[2H])C([2H])([2H])N([C@H](CO)CCc1ccccc1NC(=O)[C@@H](NC(=O)OC)C(c1ccccc1)c1ccccc1)S(=O)(=O)c1ccc2ncsc2c1 [Example 8, N-(2-{(3S)-3-[(1,3-benzothiazol-6-ylsulfonyl)(2-methylpropyl-d9)amino]-4-hydroxybutyl}phenyl)-Nα-(methoxycarbonyl)-β-phenyl-L-phenylalaninamide] was tested, and the IC95 [1, 3] was 1550 nM and the IC50 [2] was 1.7 nM.

In the case of COC(=O)N[C@H](C(=O)Nc1ccccc1CC[C@@H](CO)N(CCC(C)C)S(=O)(=O)c1ccc2ncsc2c1)C(c1ccccc1)c1ccccc1 [Example 9, N-(2-{(3S)-3-[(1,3-benzothiazol-6-ylsulfonyl)(3-methylbutyl)amino]-4-hydroxybutyl}phenyl)-Nα-(methoxycarbonyl)-β-phenyl-L-phenylalaninamide], the IC95 [1, 3] is reported as 957 nM and the IC50 [2] is reported as 0.3 nM.

In the case of [2H]C([2H])([2H])C([2H])([2H])C([2H])([2H])N([C@H](CO)CCc1ccccc1NC(=O)[C@@H](NC(=O)OC)C(c1ccccc1)c1ccccc1)S(=O)(=O)c1ccc2ncsc2c1 [Example 10, N-(2-{(3S)-3-[(1,3-benzothiazol-6-ylsulfonyl)(propyl-d7)amino]-4-hydroxybutyl}phenyl)-Nα-(methoxycarbonyl)-β-phenyl-L-phenylalaninamide], the IC95 [1, 3] is reported as 1190 nM and the IC50 [2] is reported as 0.7 nM.

In the case of COC(=O)N[C@H](C(=O)Nc1ccccc1CC[C@@H](CO)N(Cc1cn(C)nc1C)S(=O)(=O)c1ccc2ncsc2c1)C(c1ccccc1)c1ccccc1 [Example 11, N-{2-[(3S)-3-{(1,3-benzothiazol-6-ylsulfonyl)[(1,3-dimethyl-1H-pyrazol-4-yl)methyl]amino}-4-hydroxybutyl]phenyl}-Nα-(methoxycarbonyl)-β-phenyl-L-phenylalaninamide], the IC95 [1, 3] is reported as 683 nM and the IC50 [2] is reported as 0.05 nM.

For COC(=O)N[C@H](C(=O)Nc1ccccc1CC[C@@H](CO)N(CC1CC(F)(F)C1)S(=O)(=O)c1ccc2ncsc2c1)C(c1ccccc1)c1ccccc1 [Example 12, N-{2-[(3S)-3-{(1,3-benzothiazol-6-ylsulfonyl)[(3,3-difluorocyclobutyl)methyl]amino}-4-hydroxybutyl]phenyl}-Nα-(methoxycarbonyl)-β-phenyl-L-phenylalaninamide], the IC95 [1, 3] was 1530 nM and the IC50 [2, 4] was 0.9 nM.

For COC(=O)N[C@@H](Cc1ccccc1Cl)C(=O)Nc1ccccc1CC[C@@H](CO)N(CCC(C)C)S(=O)(=O)c1ccc2ncsc2c1 [Example 16, N-(2-{(3S)-3-[(1,3-benzothiazol-6-ylsulfonyl)(3-methylbutyl)amino]-4-hydroxybutyl}phenyl)-2-chloro-Nα-(methoxycarbonyl)-L-phenylalaninamide], the IC50 [2, 4] was 8.1 nM.

COC(=O)N[C@@H](Cc1ccccc1Cl)C(=O)Nc1ccccc1CC[C@@H](CO)N(Cc1cn(C)nc1C)S(=O)(=O)c1ccc2ncsc2c1 [Example 17, N-{2-[(3S)-3-{(1,3-benzothiazol-6-ylsulfonyl)[(1,3-dimethyl-1H-pyrazol-4-yl)methyl]amino}-4-hydroxybutyl]phenyl}-2-chloro-Nα-(methoxycarbonyl)-L-phenylalaninamide] gave an IC50 [2, 4] of 10 nM.

With [2H]C([2H])(c1ccccc1NC(=O)[C@@H](NC(=O)OC)C(c1ccccc1)c1ccccc1)C([2H])([2H])[C@@H](CO)N(CC(C)C)S(=O)(=O)c1ccc2ncsc2c1 [Example 21, N-(2-{(3S)-3-[(1,3-benzothiazol-6-ylsulfonyl)(2-methylpropyl)amino]-1-d2-2-d2-4-hydroxybutyl}phenyl)-Nα-(methoxycarbonyl)-β-phenyl-L-phenylalaninamide] the IC50 [2, 4] was 3.7 nM.

Compound [2H]C([2H])([2H])C([2H])(C([2H])([2H])[2H])C([2H])([2H])N([C@H](CO)C([2H])([2H])C([2H])([2H])c1ccccc1NC(=O)[C@@H](NC(=O)OC)C(c1ccccc1)c1ccccc1)S(=O)(=O)c1ccc2ncsc2c1 [Example 22, N-(2-{(3S)-3-[(1,3-benzothiazol-6-ylsulfonyl)(2-methylpropyl-d7)amino]-1-d2-2-d2-4-hydroxybutyl}phenyl)-Nα-(methoxycarbonyl)-β-phenyl-L-phenylalaninamide] has an IC50 [2, 4] of 1.7 nM.

In the case of [2H]C([2H])([2H])C([2H])([2H])N([C@H](CO)Cc1cccc(NC(=O)[C@@H](NC(=O)OC)C(c2ccccc2)c2ccccc2)c1)S(=O)(=O)c1ccc(N)cc1 [Example 33, N-{3-[(2S)-2-{[(4-aminophenyl)sulfonyl](ethyl-d5)amino}-3-hydroxypropyl]phenyl}-Nα-(methoxycarbonyl)-β-phenyl-L-phenylalaninamide], the IC50 [2, 4] is reported as 50.2 nM.

With COC(=O)N[C@H](C(=O)Nc1cccc(C[C@@H](CO)N(C(C)C)S(=O)(=O)c2ccc(N)cc2)c1)C(c1ccccc1)c1ccccc1 [Example 34, N-{3-[(2S)-2-{[(4-aminophenyl)sulfonyl](propan-2-yl)amino}-3-hydroxypropyl)phenyl}-Nα-(methoxycarbonyl)-β-phenyl-L-phenylalaninamide] the IC50 [2, 4] was 41.6 nM.

With COC(=O)N[C@H](C(=O)Nc1cccc(C[C@@H](CO)N(C(C)C)S(=O)(=O)c2ccc(CO)cc2)c1)C(c1ccccc1)c1ccccc1 [Example 35, N-(3-{(2S)-3-hydroxy-2[{[4-(hydroxymethyl)phenyl]sulfonyl}(propan-2-yl)amino]propyl}phenyl)-Nα-(methoxycarbonyl)-β-phenyl-L-phenylalaninamide] the IC50 [2, 4] was 18.9 nM.
